Marks after values point to notes of the source that are not given here. Square brackets hold non-standard residues; d marks the D form. Peptide text beside a SMILES is read from it. * marks the point of attachment. Phe(4-Cl) = N[C@@H](Cc1ccc(Cl)cc1)C(=O)O; hArg = N=C(N)NCCCC[C@H](N)C(=O)O; Nle = CCCC[C@H](N)C(=O)O; Abu = CC[C@H](N)C(=O)O; PhAc = O=C(Cc1ccccc1)*
What was measured:
Format in all cases: in vivo
[1] = system: Estrogen independent MXT mouse mammary tumors; assay: MXT mouse mammary tumors in BDF mice; settings: for Tumor weights: day 18; for Number of surviving mice: groups of 10
Method: Estrogen independent MXT tumors were transplanted sc. to female BDF mice. One day after transplantation, the mice were divided into groups of 10 animals each, and the treatment was started. The mice in groups 1, 2, 3, and 4 received single injections daily of various GH-RH antagonists sc. at 20 μg dose per day for 18 days. In groups 5 and 6, the peptides were administered by Alzet osmotic pumps releasing a daily amount of 20 μg peptide. Tumors were measured regularly, and tumor volume was calculated. The mice were sacrificed on day 18 and tumor weights were measured.

[2] = system: U87MG human glioblastoma xenografts; assay: U87MG human glioblastoma xenografts in nude mice; settings: 20 μg daily s.c., 28 days
Method: Mice were implanted s.c. with U87MG glioblastomas and when tumors reached a volume of approx. 70 mm^3 the mice were randomly divided into 2 experimental groups. One group was treated with Peptide 1 in single daily s.c. injections of 20 μg for 28 days, while the other group served as control.

[3] = system: MDA-MB-468 human breast cancer xenografts; assay: MDA-MB-468 human breast cancer xenografts in nude mice; settings: 20 μg daily s.c., 5 weeks
Method: Nude mice bearing MDA-MB-468 hormone-independent human breast cancer xenografts were divided into groups of 10 animals each. The treated groups received single daily s.c. injections of 20 μg of GH-RH antagonists. One group was treated with Peptide 1, a second group was treated with MZ-5-156 for comparison. The control group was injected with the vehicle solvent. The treatment was continued for 5 weeks. Tumors were measured once a week and tumor volume was calculated. The mice were sacrificed at the end of experiment and tumor weights were measured.

[4] = system: HT-29 human colon cancers; assay: HT-29 human colon cancer xenografts in nude mice; settings: 20 μg daily sc., 6 weeks
Method: HT-29 human colon cancers were transplanted sc. into male nude mice. 19 days after transplantation, the mice were divided into groups of 10 animals each, and the treatment was started. The mice received single daily injections of various GH-RH antagonists sc. at 20 μg dose per day for 6 weeks. Tumors were measured regularly, and tumor volume was calculated. The mice were sacrificed at the end of experiment and tumor weights were measured.

[5] = system: PC-3 human prostate cancer xenografts; assay: PC-3 human prostate cancer xenografts in nude mice; settings: 20 μg daily s.c., 21 days
Method: Male nude mice were implanted s.c. with 3 mm^3 pieces of PC-3 human hormone-independent prostate cancer tissue into both flanks. When tumors reached a volume of approx. 40–50 mm^3 the mice were divided into 3 experimental groups. The first and second groups were treated with peptides Peptide 3 and MZ-5-156, respectively, in single daily s.c. injections of 20 μg for 21 days, while the third group served as control. Tumor volumes were measured at weekly intervals, tumor weights were measured at the end of experiment.

[6] = Alzet osmotic pump, 20 μg daily
[7] = single daily sc. injections, 20 μg per day

| SMILES | Tumor volume (mm^3) On day 14 [1, 6] | Tumor volume (mm^3) On day 18 [1, 6] | Tumor weights [1, 6] | Number of surviving mice [1, 6] | Tumor volume (mm^3) On day 14 [1, 7] | Tumor volume (mm^3) On day 18 [1, 7] | Tumor weights [1, 7] | Number of surviving mice [1, 7] | Final tumor volume (mm^3) [2] | Tumor weight [2] | Final tumor volume (mm^3) ([3]; nude mice) | Tumor weight ([3]; nude mice) | Number of regressed tumors ([3]; groups of 10) | Inhibitory effect on HT-29 human colon cancers (in words) [4] | Final tumor volume (mm^3) ([4]; nude mice) | Tumor weight ([4]; nude mice) | Inhibition in tumor volume [5] | Inhibition in tumor weight [5] | Final tumor volume (mm^3) ([5]; nude mice) | Tumor weight ([5]; nude mice) |
| --- | --- | --- | --- | --- | --- | --- | --- | --- | --- | --- | --- | --- | --- | --- | --- | --- | --- | --- | --- | --- |
| CCCC[C@H](NC(=O)[C@@H](NC(=O)[C@H](CC(=O)O)NC(=O)[C@H](CCC(N)=O)NC(=O)[C@H](CC(C)C)NC(=O)[C@H](CC(C)C)NC(=O)[C@H](CCCCN)NC(=O)[C@H](CCCNC(=N)N)NC(=O)[C@H](C)NC(=O)[C@H](CO)NC(=O)[C@H](CC(C)C)NC(=O)[C@H](CCC(N)=O)NC(=O)[C@H](CC)NC(=O)[C@H](CC(C)C)NC(=O)[C@@H](NC(=O)[C@H](CCCCN)NC(=O)[C@H](CCCNC(=N)N)NC(=O)[C@H](Cc1ccc(O)cc1)NC(=O)[C@H](CCCNC(=N)N)NC(=O)[C@H](CC(N)=O)NC(=O)[C@@H](NC(=O)[C@H](Cc1ccc(Cl)cc1)NC(=O)[C@@H](NC(=O)[C@H](C)NC(=O)[C@H](CC(=O)O)NC(=O)[C@@H](CCCNC(=N)N)NC(=O)[C@H](Cc1ccc(O)cc1)NC(=O)Cc1ccccc1)[C@@H](C)CC)[C@@H](C)O)C(C)C)[C@@H](C)CC)C(=O)N[C@H](CCCNC(=N)N)C(=O)N[C@@H](CCCCNC(=N)N)C(N)=O [Peptide 1, [PhAc^0, D-Arg^2, Phe(pCl)^6, Arg^9, Abu^15, Nle^27, D-Arg^28, Har^29]hGH-RH(1–29)NH2] (PhAc-Y[dR]DAI[Phe(4-Cl)]TNRYRKVL[Abu]QLSARKLLQDI[Nle][dR][hArg]-NH2) | 1329 ± 327** mm^3 | 3403 ± 584** mm^3 | 4810 ± 645 mg | 7 | 2924 ± 654 mm^3 | 4373 ± 381** mm^3 | 6964 ± 676 mg | 6 | 817 ± 323** mm^3 | 1.4 ± 0.7 g | 82.4 ± 29.1** mm^3 | 64.0 ± 28.7 mg | 4 | equally strong inhibitory effect | 890 ± 322* mm^3 | 1354 ± 480 mg |  |  |  |  |
| CCCC[C@H](NC(=O)[C@@H](NC(=O)[C@H](CC(=O)O)NC(=O)[C@H](CCC(N)=O)NC(=O)[C@H](CC(C)C)NC(=O)[C@H](CC(C)C)NC(=O)[C@H](CCCCN)NC(=O)[C@H](CCCNC(=N)N)NC(=O)[C@H](C)NC(=O)[C@H](CO)NC(=O)[C@H](CC(C)C)NC(=O)[C@H](CCC(N)=O)NC(=O)[C@H](CC)NC(=O)[C@H](CC(C)C)NC(=O)[C@@H](NC(=O)[C@H](CCCCN)NC(=O)[C@H](CCCNC(=N)N)NC(=O)[C@H](Cc1ccc(OC)cc1)NC(=O)[C@H](CCCCNC(=N)N)NC(=O)[C@H](CC(N)=O)NC(=O)[C@@H](NC(=O)[C@H](Cc1ccc(Cl)cc1)NC(=O)[C@@H](NC(=O)[C@H](C)NC(=O)[C@H](CC(=O)O)NC(=O)[C@@H](CCCNC(=N)N)NC(=O)[C@H](Cc1ccc(O)cc1)NC(=O)Cc1ccccc1)[C@@H](C)CC)[C@@H](C)O)C(C)C)[C@@H](C)CC)C(=O)N[C@H](CCCNC(=N)N)C(=O)N[C@@H](CCCCNC(=N)N)C(N)=O [Peptide 3, [PhAc^0, D-Arg^2, Phe(pCl)^6, Har^9, Tyr(Me)^10, Abu^15, Nle^27, D-Arg^28, Har^29]hGH-RH(1–29)NH2] (PhAc-Y[dR]DAI[Phe(4-Cl)]TN[hArg]Y(Me)RKVL[Abu]QLSARKLLQDI[Nle][dR][hArg]-NH2) | 1688 ± 220** mm^3 | 4272 ± 295** mm^3 | 5939 ± 453 mg | 8 | 1902 ± 349** mm^3 | 3465 ± 607** mm^3 | 5266 ± 906 mg | 8 |  |  |  |  |  |  |  |  | 65% | 62% | 107.9 ± 12.5* mm^3 | 73.7 ± 11.9 mg |
